Source: the NIST ThermoML archive (doi:10.1016/j.fluid.2016.10.005)
± gives the expanded uncertainty stated by the source.

Tests used:
[1] = molar heat capacity at constant pressure; settings: 101 kPa, Liquid, DSC
[2] = molar heat capacity at constant pressure; mn = molality of the nth substance listed, in mol/kg; settings: 101 kPa, Liquid, DSC, m2 = 0

Row | molar heat capacity at constant pressure ([1]; 278.15 K) | molar heat capacity at constant pressure ([1]; 283.15 K) | molar heat capacity at constant pressure ([1]; 288.15 K) | molar heat capacity at constant pressure ([1]; 293.15 K) | molar heat capacity at constant pressure ([1]; 298.15 K) | molar heat capacity at constant pressure ([1]; 308.15 K) | molar heat capacity at constant pressure ([1]; 318.15 K) | molar heat capacity at constant pressure ([1]; 328.15 K) | molar heat capacity at constant pressure ([1]; 333.15 K) | molar heat capacity at constant pressure ([2]; 278.15 K) | molar heat capacity at constant pressure ([2]; 283.15 K) | molar heat capacity at constant pressure ([2]; 288.15 K) | molar heat capacity at constant pressure ([2]; 293.15 K) | molar heat capacity at constant pressure ([2]; 298.15 K) | molar heat capacity at constant pressure ([2]; 308.15 K) | molar heat capacity at constant pressure ([2]; 318.15 K) | molar heat capacity at constant pressure ([2]; 328.15 K) | molar heat capacity at constant pressure ([2]; 333.15 K) | Structure (SMILES)
1 | 471.7 ± 18 J/K/mol | 473.61 ± 18 J/K/mol | 475.62 ± 18 J/K/mol | 477.67 ± 19 J/K/mol | 479.72 ± 19 J/K/mol | 484.23 ± 19 J/K/mol | 489.08 ± 19 J/K/mol | 494.37 ± 19 J/K/mol | 497.05 ± 19 J/K/mol |  |  |  |  |  |  |  |  |  | CCCCCOCCOCCOCCO [ethanol, 2-[2-[2-(pentyloxy)ethoxy]ethoxy]-]
2 | 75.75 ± 2.9 J/K/mol | 75.58 ± 2.9 J/K/mol | 75.47 ± 2.9 J/K/mol | 75.39 ± 2.9 J/K/mol | 75.35 ± 2.9 J/K/mol | 75.32 ± 2.9 J/K/mol | 75.34 ± 2.9 J/K/mol | 75.4 ± 2.9 J/K/mol | 75.48 ± 2.9 J/K/mol |  |  |  |  |  |  |  |  |  | O [water]
3 |  |  |  |  |  |  |  |  |  | 75.75 ± 2.9 J/K/mol | 75.58 ± 2.9 J/K/mol | 75.47 ± 2.9 J/K/mol | 75.39 ± 2.9 J/K/mol | 75.35 ± 2.9 J/K/mol | 75.32 ± 2.9 J/K/mol | 75.34 ± 2.9 J/K/mol | 75.4 ± 2.9 J/K/mol | 75.48 ± 2.9 J/K/mol | O [water] + CCCCCOCCOCCOCCO
